Reference: patent US9686984B2, “Macrocyclic picolinamides as fungicides” (DOW AGROSCIENCES LLC, priority 2014, dated 2017)
Like-named read-outs stand apart in the source and are kept apart here.

Legend:
[1] = system: Zymoseptoria tritici; assay: Leaf Blotch of Wheat (SEPTTR) disease control on wheat seedlings; type: in vivo; settings: for pest or weed control at 121.5 g/ha: Low Volume (121.5 g/H); for pest or weed control at 100 µg/mL: High Volume (100 ppm)
Method: Example A: Evaluation of Fungicidal Activity: Leaf Blotch of Wheat (Mycosphaerella graminicola; Anamorph: Zymoseptoria tritici; Bayer code […]) Technical grades of materials were dissolved in acetone, which were then mixed with nine volumes of water containing 110 ppm Triton X-100. The fungicide solutions were applied onto wheat seedlings using an automated booth sprayer to run-off. All sprayed plants were allowed to air dry prior to further handling. All fungicides were evaluated using the aforementioned method for their activity vs. all target diseases, unless stated otherwise. Wheat leaf blotch and brown rust activity were also evaluated using track spray applications, in which case the fungicides were formulated as EC formulations, containing 0.1% Trycol 5941 in the spray solutions. Wheat plants (variety Yuma) were grown from seed in a greenhouse in 50% mineral soil/50% soil-less Metro mix until the first leaf was fully emerged, with 7-10 seedlings per pot. These plants were inoculated with an aqueous spore suspension of Septoria tritici either prior to or after fungicide treatments. After inoculation the plants were kept in 100% relative humidity (one day in a dark dew chamber followed by two to three days in a lighted dew chamber at 20° C.) to permit spores to germinate and infect the leaf. The plants were then transferred to a greenhouse set at 20° C. for disease to develop. When disease symptoms were fully expressed on the 1st leaves of untreated plants, infection levels were assessed on a scale of 0 to 100 percent disease severity. Percent disease control was calculated using the ratio of disease severity on treated plants relative to untreated plants.

[2] = system: Puccinia triticina; assay: Wheat Brown Rust (PUCCRT) disease control on wheat seedlings; type: in vivo; settings: for pest or weed control at 121.5 g/ha: Low Volume (121.5 g/H); for pest or weed control at 100 µg/mL: High Volume (100 ppm)
Method: Technical grades of materials were dissolved in acetone, which were then mixed with nine volumes of water containing 110 ppm Triton X-100. The fungicide solutions were applied onto wheat seedlings using an automated booth sprayer to run-off. All sprayed plants were allowed to air dry prior to further handling. All fungicides were evaluated using the aforementioned method for their activity vs. all target diseases, unless stated otherwise. Wheat leaf blotch and brown rust activity were also evaluated using track spray applications, in which case the fungicides were formulated as EC formulations, containing 0.1% Trycol 5941 in the spray solutions. Wheat plants (variety Yuma) were grown from seed in a greenhouse in 50% mineral soil/50% soil-less Metro mix until the first leaf was fully emerged, with 7-10 seedlings per pot. These plants were inoculated with an aqueous spore suspension of Septoria tritici either prior to or after fungicide treatments. After inoculation the plants were kept in 100% relative humidity (one day in a dark dew chamber followed by two to three days in a lighted dew chamber at 20° C.) to permit spores to germinate and infect the leaf. The plants were then transferred to a greenhouse set at 20° C. for disease to develop. When disease symptoms were fully expressed on the 1st leaves of untreated plants, infection levels were assessed on a scale of 0 to 100 percent disease severity. Percent disease control was calculated using the ratio of disease severity on treated plants relative to untreated plants. Example B: Evaluation of Fungicidal Activity: Wheat Brown Rust (Puccinia triticina; Synonym: Puccinia recondita f. sp. tritici; Bayer code PUCCRT) Wheat plants (variety Yuma) were grown from seed in a greenhouse in 50% mineral soil/50% soil-less Metro mix until the first leaf was fully emerged, with 7-10 seedlings per pot. These plants were inoculated with an aqueous spore suspension of Puccinia triticina either prior to or after fungicide treatments. After inoculation the plants were kept in a dark dew room at 22° C. with 100% relative humidity overnight to permit spores to germinate and infect the leaf. The plants were then transferred to a greenhouse set at 24° C. for disease to develop. Fungicide formulation, application and disease assessment followed the procedures as described in the Example A.

[3] = 24 h, 1 Day Protectant, read-out: SEPTTR disease control, 1 DP
[4] = 72 h, 3 Day Curative, read-out: SEPTTR disease control, 3 DC
[5] = 24 h, 1 Day Protectant, read-out: PUCCRT disease control, 1 DP
[6] = 72 h, 3 Day Curative, read-out: PUCCRT disease control, 3 DC

| SMILES | pest or weed control at 121.5 g/ha [1, 3] [%] | pest or weed control at 121.5 g/ha [1, 4] [%] | pest or weed control at 121.5 g/ha [2, 5] [%] | pest or weed control at 121.5 g/ha [2, 6] [%] | pest or weed control at 100 µg/mL [1, 3] [%] | pest or weed control at 100 µg/mL [1, 4] [%] | pest or weed control at 100 µg/mL [2, 5] [%] | pest or weed control at 100 µg/mL [2, 6] [%] |
| --- | --- | --- | --- | --- | --- | --- | --- | --- |
| CC[C@H]1OCC[C@H](NC(=O)c2nccc(OC)c2OCOC(C)=O)C(=O)O[C@@H](C)[C@@H]1Cc1ccc(F)cc1 [Compound 22] | > 70 | > 70 | > 70 | > 70 |  |  |  |  |
| CCCC[C@H]1[C@H](C)OC(=O)[C@@H](NC(=O)c2nccc(OC)c2O)CCO[C@@H]1CCc1ccccc1 [Compound 64] |  |  |  |  | > 70 | > 70 | > 70 | > 70 |
| CCCC[C@H]1OCC[C@H](NC(=O)c2nccc(OC)c2OC(C)=O)C(=O)O[C@@H](C)[C@@H]1Cc1ccc(F)cc1 [Compound 6] | > 70 | > 70 | > 70 | > 70 |  |  |  |  |
| CCCC[C@H]1[C@H](C)OC(=O)[C@@H](NC(=O)c2nccc(OC)c2OCOC(=O)COCC)CCO[C@@H]1COc1ccccc1 [Compound 47] | > 70 | > 70 | > 70 | > 70 |  |  |  |  |
| COc1ccnc(C(=O)N[C@H]2CCO[C@H](CCc3ccccc3)[C@@H](CCC(C)C)[C@H](C)OC2=O)c1O [Compound 59] |  |  |  |  | > 70 | > 70 | > 70 | > 70 |
| COc1ccnc(C(=O)N[C@H]2CCO[C@H](Cc3ccccc3)[C@@H](Cc3ccccc3)[C@H](C)OC2=O)c1OCOC(C)=O [Compound 19] | > 70 | > 70 | > 70 | > 70 |  |  |  |  |
| COc1ccnc(C(=O)N[C@H]2CCO[C@H](CCc3ccccc3)[C@@H](CCC(C)C)[C@H](C)OC2=O)c1OC(C)=O [Compound 9] | > 70 | > 70 | > 70 | > 70 |  |  |  |  |
| CCOCC(=O)Oc1c(OC)ccnc1C(=O)N[C@H]1CCOC[C@@H](Cc2ccccc2)[C@H](C)OC1=O [Compound 48, 2-(((3R,4S,7S)-3-benzyl-4-methyl-6-oxo-1,5-dioxonan-7-yl)carbamoyl)-4-methoxypyridin-3-yl 2-ethoxyacetate] | < 70 | < 70 | > 70 | > 70 |  |  |  |  |
| COc1ccnc(C(=O)N[C@H]2CCOC[C@@H](Cc3ccccc3)[C@H](C)OC2=O)c1OC(C)=O [Compound 1] | > 70 | > 70 | > 70 | > 70 |  |  |  |  |
| COc1ccnc(C(=O)N[C@H]2CCO[C@H](CCc3ccccc3)[C@@H](Cc3ccc(F)cc3)[C@H](C)OC2=O)c1OC(C)=O [Compound 7, 2-(((2R,3S,4S,7S)-3-(4-fluorobenzyl)-4-methyl-6-oxo-2-phenethyl-1,5-dioxonan-7-yl)carbamoyl)-4-methoxypyridin-3-yl acetate] | > 70 | > 70 | > 70 | > 70 |  |  |  |  |
| CCCC[C@H]1[C@H](C)OC(=O)[C@@H](NC(=O)c2nccc(OC)c2OCOC(C)=O)CCO[C@@H]1CCc1ccccc1 [Compound 31] | > 70 | > 70 | > 70 | > 70 |  |  |  |  |
| CCCC[C@H]1[C@H](C)OC(=O)[C@@H](NC(=O)c2nccc(OC)c2OCOC(=O)C(C)C)CCO[C@@H]1COc1ccccc1 [Compound 41] | > 70 | > 70 | > 70 | > 70 |  |  |  |  |
| CCCC[C@H]1OCC[C@H](NC(=O)c2nccc(OC)c2OCOC(C)=O)C(=O)O[C@@H](C)[C@@H]1Cc1ccccc1 [Compound 18] | > 70 | > 70 | > 70 | > 70 |  |  |  |  |
| CCCC[C@H]1[C@H](C)OC(=O)[C@@H](NC(=O)c2nccc(OC)c2OC(C)=O)CCO[C@@H]1CC [Compound 14] | > 70 | < 70 | > 70 | > 70 |  |  |  |  |
| COc1ccnc(C(=O)N[C@H]2CCO[C@H](CCc3ccccc3)[C@@H](Cc3ccc(F)cc3)[C@H](C)OC2=O)c1O [Compound 57, N-((2R,3S,4S,7S)-3-(4-fluorobenzyl)-4-methyl-6-oxo-2-phenethyl-1,5-dioxonan-7-yl)-3-hydroxy-4-methoxypicolinamide] |  |  |  |  | > 70 | > 70 | > 70 | < 70 |
| COc1ccnc(C(=O)N[C@H]2CCO[C@H](Cc3ccccc3)[C@@H](CCC(C)C)[C@H](C)OC2=O)c1OC(C)=O [Compound 12] | > 70 | > 70 | > 70 | > 70 |  |  |  |  |
| COc1ccnc(C(=O)N[C@H]2CCOC[C@@H](Cc3ccccc3)[C@H](C)OC2=O)c1OCOC(=O)C(C)C [Compound 36] | > 70 | < 70 | > 70 | > 70 |  |  |  |  |
| COc1ccnc(C(=O)N[C@H]2CCOC[C@@H](CCC(C)C)[C@H](C)OC2=O)c1OCOC(C)=O [Compound 30] | > 70 | > 70 | > 70 | > 70 |  |  |  |  |
| CCOCC(=O)OCOc1c(OC)ccnc1C(=O)N[C@H]1CCOC[C@@H](Cc2ccccc2)[C@H](C)OC1=O [Compound 42, ((2-(((3R,4S,7S)-3-benzyl-4-methyl-6-oxo-1,5-dioxonan-7-yl)carbamoyl)-4-methoxypyridin-3-yl)oxy)methyl 2-ethoxyacetate] | > 70 | > 70 | > 70 | > 70 |  |  |  |  |
| COCC[C@H]1OCC[C@H](NC(=O)c2nccc(OC)c2OC(C)=O)C(=O)O[C@@H](C)[C@@H]1Cc1ccccc1 [Compound 4] | > 70 | > 70 | > 70 | > 70 |  |  |  |  |
| CCCC[C@H]1[C@H](C)OC(=O)[C@@H](NC(=O)c2nccc(OC)c2OCOC(C)=O)CCO[C@@H]1CC [Compound 34] | < 70 | < 70 | > 70 | > 70 |  |  |  |  |
| COc1ccnc(C(=O)N[C@H]2CCO[C@H](CCc3ccccc3)[C@@H](Cc3ccc(F)cc3)[C@H](C)OC2=O)c1OCOC(C)=O [Compound 24, ((2-(((2R,3S,4S,7S)-3-(4-fluorobenzyl)-4-methyl-6-oxo-2-phenethyl-1,5-dioxonan-7-yl)carbamoyl)-4-methoxypyridin-3-yl)oxy)methyl acetate] | > 70 | > 70 | > 70 | > 70 |  |  |  |  |
